Results from patent US20190211397A1, “INHIBITORS OF GPR132 FOR USE IN PREVENTING AND/OR TREATING CHEMOTHERAPY-INDUCED NEUROPATHIC PAIN” (Fraunhofer-Gesellschaft zur Foerderung der angewandten …, priority 2016, published 2019).
Entries after “also recorded” stand apart in the source; their conditions may differ.

Assays:
[1] = tested on: wild type, TRPV1-deficient and G2A-deficient mice; assay: Mechanical pain thresholds after intraplantar 9-HODE in oxaliplatin-treated mice; format: in vivo; settings: for mechanical pain thresholds after intraplantar 9-HODE: day eight after oxaliplatin treatment; for mechanical paw withdrawal latencies after intraplantar 9-HODE: day 8 of oxaliplatin treatment
Description: In all behavioral tests the experimenter was unaware of the treatment and the genotype of the mice. For all behavioral experiments we used only 6-12 weeks old C57BU6N mice purchased from commercial breeding companies (Charles River, Sulzfeld, Germany, Janvier, Le Geneset-Saint-lsle, FR). G2A and TRPV1 knockout strains were from Jackson laboratories. All experiments followed the ethics guidelines for investigations in conscious animals and the procedures were approved by the local Ethics Committee.
For the intra plantar (i.pl.) treatment with 9-HODE (1 0 (JM) (Cayman), a volume of 10 (JI was injected in the mid-plantar area of the hindpaw. For the intraperitoneal (i.p.) treatment, 100 (JI of oxaliplatin (3 mg/kg, Tocris) were injection into the peritoneum. The control group animals were treated with the corresponding volumes of 0.9% saline solution.
To determine the mechanical thresholds of mice, a Dynamic Plantar Aesthesiometer (Ugo Basile, Comerio, Italy) was used. Mice were put on an elevated grid in test cages at least 2 h before the measurement to allow accommodation. Then, baseline measurement was performed before the treatment with Oxaliplatin or 9-HODE. Therefore, a steel rod pushed against the plantar side of the hind paw with linear ascending force (0-5 g over 10 s, in 0.5 g/s intervals) until a fast withdraw of the paw was observed The time between the first contact of the steel rod and the paw withdraw was measured in seconds (paw withdraw latency) and a cut-off time of 20 s was set.

[2] = tested on: TRPV1; assay: Calcium imaging of DRG neurons: TRPV1 sensitization (two capsaicin stimuli, Δratio); format: cell-based, mice
Description: (§1) DRG primary cultures were prepared as described previously (Brenneis et al., 2011 b). Briefly, twenty to thirty murine dorsal roots ganglia (DRGs) were dissected from spinal segments and transferred directly into ice-cold Hanks' balanced salt solution with CaCI2 and MgCI2 (lnvitrogen, Carlsbad, Calif., USA). The DRGs were than incubated with Neurobasal Medium (lnvitrogen, Carlsbad, Calif., USA) containing 500 U/ml collagenase (Sigma, Deisenhofen, Germany) and 2.5 U/ml dispase II (Roche, Mannheim, Germany) for 75 mins at 37° C. After removal of the collagenase/dispase-solution cells were washed three times with medium containing 10% FCS, penicillin/streptomycin/gentamycin (lnvitrogen, Carlsbad, Calif., USA) and incubated in 0.05% trypsin for 10 min at 37° C. After two washing steps, the cells were mechanically dissociated with a 1 ml pipette and plated on Poly-L-lysine (Sigma) coated coverslips. After incubation at 37° C. for 2 h, Neurobasal Medium containing glutamine (2 mm), penicillin (100 U/ml), streptomycin (100 μg/ml), B-27 and gentamicin (50 μg/ml) was added to the cells and incubated overnight. The neurons were used for Calcium imaging the next day.
Calcium-imaging experiments were performed with a Leica calcium-imaging setup, consisting of a Leica DMI 4000 b inverted microscope equipped with a DFC360 FX (CCD) camera, Fura-2 filters, and an N-Plan 10×/0.25 Ph1 objective (all from Leica), was used. Images were taken every 2 s and were processed with the LAS AF-software (Leica). For each experiment, an area with large cell numbers 24 h after preparation (see DRG primary cultures) was chosen and 40-110 cells were monitored simultaneously. Cells were loaded with 5 μM fura-2-AM-ester (Biotium), incubated for 45-60 min at 37° C. and washed with ringer solution (145 mM NaCI, 1.25 mM CaCl2, 1 mM MgCl2, 5 mM KCI, 10 mM D-glucose, and 10 mM HEPES, adjusted to pH 7.3). Baseline measurements were performed with ringer solution at a flow rate of 1-2 ml/min at room temperature. For the activation of TRPV1 we used a solution of 200 nM capsaicin (Sigma), for TRPA1 activation 50 μM allyl isothiocyanate (AITC, Fluka Analytic) and for TRPM8 100 μM L-menthol (Sigma) dissolved in ringer solution. For TRP-channel sensitization, cells were incubated for 2 mins with different concentrations (50 nM-1000 nM) of (±) 9-HODE (Cayman) or (±) 13-HODE (Cayman) before the second stimulus took place. For control stimulations, the corresponding volume of DMSO (Sigma) was mixed in ringer solution and applied with the same flow rate. 10 μM of the PKA inhibitor H89 (Tocris) or 1 μM of the PKC inhibitor GF1 09203X (Tocris) was co-incubated with fura-2 for 45 mins. As positive control for PKA activation 40 iJM 8-bromo-cAMP (Cayman) and for PKC activation 500 nM bradykinin (Cayman) was used. At the end of each measurement, 50 mM KCl was applied to identify neurons.

[3] = molecular target: T1, TRPM8 (Mus musculus, UniProt Q8R4D5); assay: Calcium imaging of DRG neurons: TRPM8 sensitization (menthol); format: cell-based, mice; settings: activated with menthol 100 μM
T1 construct: endogenous in cells; host or cells: primary murine dorsal root ganglion (DRG) neurons
T1 sequence (Q8R4D5 whole entry): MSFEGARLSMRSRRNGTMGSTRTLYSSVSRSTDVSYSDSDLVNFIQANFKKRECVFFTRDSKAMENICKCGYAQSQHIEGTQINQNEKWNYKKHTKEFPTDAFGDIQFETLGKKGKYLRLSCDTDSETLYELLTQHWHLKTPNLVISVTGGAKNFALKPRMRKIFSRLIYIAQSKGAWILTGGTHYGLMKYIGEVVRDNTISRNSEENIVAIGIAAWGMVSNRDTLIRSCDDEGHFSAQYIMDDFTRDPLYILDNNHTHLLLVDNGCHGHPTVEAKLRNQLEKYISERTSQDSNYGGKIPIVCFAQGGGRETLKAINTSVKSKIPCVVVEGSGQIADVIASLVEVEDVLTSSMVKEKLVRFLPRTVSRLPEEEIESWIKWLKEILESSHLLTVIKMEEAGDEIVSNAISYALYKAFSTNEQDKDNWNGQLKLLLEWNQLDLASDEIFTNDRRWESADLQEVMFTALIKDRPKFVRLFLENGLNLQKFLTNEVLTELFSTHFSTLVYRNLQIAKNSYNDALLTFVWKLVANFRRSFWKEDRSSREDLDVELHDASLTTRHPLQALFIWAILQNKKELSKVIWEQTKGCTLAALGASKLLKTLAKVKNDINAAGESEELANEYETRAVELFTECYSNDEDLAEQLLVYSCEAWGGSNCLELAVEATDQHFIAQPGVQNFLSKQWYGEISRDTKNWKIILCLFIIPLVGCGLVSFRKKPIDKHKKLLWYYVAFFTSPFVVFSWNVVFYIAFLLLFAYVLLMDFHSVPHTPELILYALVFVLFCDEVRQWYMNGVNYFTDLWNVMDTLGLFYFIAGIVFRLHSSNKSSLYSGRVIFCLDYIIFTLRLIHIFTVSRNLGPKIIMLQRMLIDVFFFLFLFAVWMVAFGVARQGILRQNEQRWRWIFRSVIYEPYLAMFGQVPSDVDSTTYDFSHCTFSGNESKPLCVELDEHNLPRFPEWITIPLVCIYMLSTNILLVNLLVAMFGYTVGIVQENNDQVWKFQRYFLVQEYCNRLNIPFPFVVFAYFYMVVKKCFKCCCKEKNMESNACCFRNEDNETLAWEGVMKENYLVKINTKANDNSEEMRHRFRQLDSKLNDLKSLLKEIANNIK
Description: as §1, with “After incubation at 37° C. for 2 h, Neurobasal Medium containing glutamine (2 mm), penicillin (100 U/ml), streptomycin (100 μg/ml), B-27 and gentamicin (50 μg/ml) was added to the cells and incubated overnight. The neurons were used for Calcium imaging the next day.” left out
Calcium-imaging experiments were performed with a Leica calcium-imaging setup, consisting of a Leica DMI 4000 b inverted microscope equipped with a DFC360 FX (CCD) camera, Fura-2 filters, and an N-Plan 10×/0.25 Ph1 objective (all from Leica), was used. […] For each experiment, an area with large cell numbers 24 h after preparation (see DRG primary cultures) was chosen and 40-110 cells were monitored simultaneously. […]

CCCCC/C=C\C=C\C(O)CCCCCCCC(=O)O (centres unmarked) [9-HODE, 9-hydroxy-10E,12Z-octadecadienoic acid]
mechanical pain thresholds after intraplantar 9-HODE ([1]; G2A-deficient mice): not in G2A-deficient mice
mechanical paw withdrawal latencies after intraplantar 9-HODE ([1]; TRPV1-deficient mice): not in TRPV1-deficient mice
mechanical paw withdrawal latencies after intraplantar 9-HODE ([1]; wild type mice, ipsilateral paw (TRPV1 study)): strong reduction of mechanical paw withdrawal latencies
mechanical pain thresholds after intraplantar 9-HODE ([1]; wildtype mice, left hind paw (G2A study, 10 μM)): strong reduction of mechanical pain thresholds
9-HODE-induced TRPV1 sensitization in G2A-deficient DRG neurons ([2]; DRG cultures of G2A-deficient mice, 9-HODE 200 nM 120 s): not in G2A-deficient mice; also recorded: absent
sensitization of TRPV1 (Δratio of first and second capsaicin stimulus) ([2]; DRG neurons, lipid incubated 2 minutes before second capsaicin stimulus, 0 to 1000 nM): dose-dependently sensitizes the TRPV1 channel; also recorded: concentration-dependently induced a sensitization of TRPV1
calcium flux of second vs first capsaicin stimulus (Δratio) ([2]; wildtype DRG neurons, lipid 200 nM 120 s, capsaicin 200 nM 30 s): increased calcium flux compared to the first stimulus
sensitizing effects for TRPM8 [3]: no sensitizing effects
